Data on 28 molecules can be found in patent US20100137313A1 (ASTRAZENECA AB, priority 2008, published 2010).

The structures appear in SMILES notation.

The target of one assay is S. pneumoniae Topoisomerase IV ATPase (ParE) (Streptococcus pneumoniae serotype 4, UniProt Q59961). In words: S. pneumoniae Topoisomerase IV ATPase inhibition. As to conditions: values marked * are an average of two or more data points, 13 µM. Format: biochemical. The procedure, abridged: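 Phosphate-release ATPase assay: 1.25 nM ParE, 160 μM ATP, DNA-stimulated. Quench with malachite green/molybdate in 1 M HCl, read 650 nm; IC50 from 10-point dose series.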
Chain of S. pneumoniae Topoisomerase IV ATPase (ParE) (Q59961 whole entry): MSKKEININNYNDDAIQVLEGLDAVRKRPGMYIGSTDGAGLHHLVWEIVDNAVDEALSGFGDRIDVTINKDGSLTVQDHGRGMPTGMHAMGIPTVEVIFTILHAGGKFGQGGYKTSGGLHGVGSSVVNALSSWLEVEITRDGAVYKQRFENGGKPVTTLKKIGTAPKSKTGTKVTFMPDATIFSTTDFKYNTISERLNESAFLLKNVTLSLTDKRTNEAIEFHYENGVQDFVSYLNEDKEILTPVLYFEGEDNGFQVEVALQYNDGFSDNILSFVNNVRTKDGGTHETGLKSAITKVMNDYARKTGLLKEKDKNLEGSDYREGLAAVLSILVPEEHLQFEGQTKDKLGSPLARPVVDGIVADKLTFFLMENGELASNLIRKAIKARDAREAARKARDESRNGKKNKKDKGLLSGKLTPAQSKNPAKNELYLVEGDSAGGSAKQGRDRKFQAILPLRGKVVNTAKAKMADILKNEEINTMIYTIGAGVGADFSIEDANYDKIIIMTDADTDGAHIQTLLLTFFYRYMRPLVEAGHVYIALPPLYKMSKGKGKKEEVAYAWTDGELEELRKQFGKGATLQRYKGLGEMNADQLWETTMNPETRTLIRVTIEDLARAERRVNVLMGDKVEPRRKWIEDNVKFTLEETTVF
Consider `O=C(O)/C=C/c1cccc(-c2cnc(Nc3ccc(F)c(Cl)c3)nc2N[C@H]2CCOC2)c1` [Example 958], for which the “% Inh (13 μM) of S. pneumoniae Topoisomerase IV ATPase” value worked out at 93%.

Still in this assay, the particulars now being: values marked * are an average of two or more data points, read-out: % Inh (13 μM) of S. pneumoniae Topoisomerase IV ATPase.
As to `Cc1cc(C(F)(F)F)nn1-c1nc(Nc2ccc(F)c(Cl)c2)ncc1-c1cncc(C(=O)NCCNS(C)(=O)=O)c1` [Example 925, 5-(2-(3-chloro-4-fluorophenylamino)-4-(5-methyl-3-(trifluoromethyl)-1H-pyrazol-1-yl)pyrimidin-5-yl)-N-(2-(methylsulfonamido)ethyl)nictinamide], the inhibition at 13 µM is 88%. `Cc1cc(C(F)(F)F)nn1-c1nc(Nc2ccc(F)c(Cl)c2)ncc1-c1cncc(C(=O)NCCS(C)(=O)=O)c1` [Example 926, 5-(2-(3-chloro-4-fluorophenylamino)-4-(5-methyl-3-(trifluoromethyl)-1H-pyrazol-1-yl)pyrimidin-5-yl)-N-(2-(methylsulfonyl)ethyl)nicotinamide]: the inhibition at 13 µM was determined as 100%. With `Cc1cc(C(F)(F)F)nn1-c1nc(Nc2ccc(F)c(Cl)c2)ncc1-c1cncc(C(=O)NCCO)c1` [Example 927, 5-(2-(3-chloro-4-fluorophenylamino)-4-(5-methyl-3-(trifluoromethyl)-1H-pyrazol-1-yl)pyrimidin-5-yl)-N-(2-hydroxyethyl)nicotinamide], the inhibition at 13 µM came to 98%. Turning to `Cc1cc(C(F)(F)F)nn1-c1nc(Nc2ccc(F)c(Cl)c2)ncc1-c1cncc(C(=O)NCCN2CCN(C)CC2)c1` [Example 928, 5-(2-(3-chloro-4-fluorophenylamino)-4-(5-methyl-3-(trifluoromethyl)-1H-pyrazol-1-yl)pyrimidin-5-yl)-N-(2-(4-methylpiperazin-1-yl)ethyl)nicotinamide], the inhibition at 13 µM was 85%. Same read-out and setting: to `Cc1noc(CCNC(=O)c2cncc(-c3cnc(Nc4ccc(F)c(Cl)c4)nc3-n3nc(C(F)(F)F)cc3C)c2)n1` [Example 929, 5-(2-(3-chloro-4-fluorophenylamino)-4-(5-methyl-3-(trifluoromethyl)-1H-pyrazol-1-yl)pyrimidin-5-yl)-N-(2-(3-methyl-1,2,4-oxadiazol-5-yl)ethyl)nicotinamide] belongs 82%; to `CNC(=O)CNC(=O)c1cncc(-c2cnc(Nc3ccc(F)c(Cl)c3)nc2-n2nc(C(F)(F)F)cc2C)c1` [Example 930, 5-(2-(3-chloro-4-fluorophenylamino)-4-(5-methyl-3-(trifluoromethyl)-1H-pyrazol-1-yl)pyrimidin-5-yl)-N-(2-(methylamino)-2-oxoethyl)nicotinamide], 72%. For `Cc1cc(C(F)(F)F)nn1-c1nc(Nc2ccc(F)c(Cl)c2)ncc1-c1cncc(C(=O)N2CCOCC2)c1` [Example 931, (5-(2-(3-chloro-4-fluorophenylamino)-4-(5-methyl-3-(trifluoromethyl)-1H-pyrazol-1-yl)pyrimidin-5-yl)pyridin-3-yl)(morpholino)methanone], the inhibition at 13 µM came out at 100%.

Take `Cc1cc(C(F)(F)F)nn1-c1nc(Nc2ccc(F)c(Cl)c2)ncc1-c1cncc(C(=O)NCCN2CCOCC2)c1` [Example 932, 5-(2-(3-chloro-4-fluorophenylamino)-4-(5-methyl-3-(trifluoromethyl)-1H-pyrazol-1-yl)pyrimidin-5-yl)-N-(2-morpholinoethyl) nicotinamide]: the inhibition at 13 µM stood at 100%.

With `CONC(=O)c1cncc(-c2cnc(Nc3ccc(F)c(Cl)c3)nc2-n2nc(C(F)(F)F)cc2C)c1` [Example 933, 5-(2-(3-chloro-4-fluorophenylamino)-4-(5-methyl-3-(trifluoromethyl)-1H-pyrazol-1-yl)pyrimidin-5-yl)-N-methoxynicotinamide], the inhibition at 13 µM amounted to 100%. Same read-out and setting: under `COCCNC(=O)c1cncc(-c2cnc(Nc3ccc(F)c(Cl)c3)nc2-n2nc(C(F)(F)F)cc2C)c1` [Example 934, 5-(2-(3-chloro-4-fluorophenylamino)-4-(5-methyl-3-(trifluoromethyl)-1H-pyrazol-1-yl)pyrimidin-5-yl)-N-(2-methoxyethyl)nicotinamide] stands 100%. Same read-out and setting: to `COCC(COC)NC(=O)c1cncc(-c2cnc(Nc3ccc(F)c(Cl)c3)nc2-n2nc(C(F)(F)F)cc2C)c1` [Example 935, 5-(2-(3-chloro-4-fluorophenylamino)-4-(5-methyl-3-(trifluoromethyl)-1H-pyrazol-1-yl)pyrimidin-5-yl)-N-(1,3-dimethoxypropan-2-yl)nicotinamide] belongs 100%. On to `COc1cc(Nc2ncc(-c3cncc(C(=O)NCC(O)CO)c3)c(-n3nc(C(F)(F)F)cc3C)n2)cc(C(F)(F)F)c1` (stereo not shown) [Example 936, N-(2,3-dihydroxypropyl)-5-(2-(3-methoxy-5-(trifluoromethyl)phenylamino)-4-(5-methyl-3-(trifluoromethyl)-1H-pyrazol-1-yl)pyrimidin-5-yl)nicotinamide], for which the inhibition at 13 µM was 100%. `COCCCNc1nc(Nc2ccc(F)c(Cl)c2)ncc1-c1nnn[nH]1` [Example 937, N2-(3-chloro-4-fluorophenyl)-N4-(3-methoxypropyl)-5-(1H-tetrazol-5-yl)pyrimidine-2,4-diamine]: the inhibition at 13 µM was 17%.

Take `CN(C)CCCNc1nc(Nc2ccc(F)c(Cl)c2)ncc1-c1cncc(-c2nnn[nH]2)c1` [Example 938, 5-(5-(1H-tetrazol-5-yl)pyridin-3-yl)-N2-(3-chloro-4-fluorophenyl)-N4-(3-(dimethylamino)propyl)pyrimidin-2,4-diamine]: the inhibition at 13 µM came out at 91%. `COc1ncc(-c2cnc(Nc3ccc(F)c(Cl)c3)nc2NC2CCOC2)cn1` (stereo not shown) [Example 940, N2-(3-chloro-4-fluorophenyl)-2′-methoxy-N4-(tetrahydrofuran-3-yl)-5,5′-bipyrimidine-2,4-diamine]: the inhibition at 13 µM amounted to 76%. On the same count and under the same terms, under `COc1ncc(-c2cnc(Nc3ccc(F)c(Cl)c3)nc2N[C@H]2CCOC2)cn1` [Example 941, (S)-N2-(3-chloro-4-fluorophenyl)-2′-methoxy-N4-(tetrahydrofuran-3-yl)-5,5′-bipyrimidine-2,4-diamine] stands 54%; under `O=C(O)/C=C/c1cccc(-c2cnc(Nc3ccc(F)c(Cl)c3)nc2N[C@H]2CCOC2)c1` [Example 942, (S, E)-3-(3-(2-(3-chloro-4-fluorophenylamino)-4-(tetrahydrofuran-3-ylamino)pyrimidin-5-yl)phenyl)acrylic acid], 100%; under `Cc1cc(C(F)(F)F)nn1-c1nc(Nc2ccc(F)c(Cl)c2)ncc1-c1cnc(OCCS(C)(=O)=O)c(C(=O)O)c1` [Example 956, 5-(2-(3-chloro-4-fluorophenylamino)-4-(5-methyl-3-(trifluoromethyl)-1H-pyrazol-1-yl)pyrimidin-5-yl)-2-(2-(methylsulfonyl)ethoxy)nicotinic acid], 100%. Take `COc1cc(Nc2ncc(-c3cnc(OCCNC(C)=O)c(C(=O)O)c3)c(-n3nc(C(F)(F)F)cc3C)n2)cc(OC)c1` [Example 957, 2-(2-acetamidoethoxy)-5-(2-(3,5-dimthoxyphenylamino)-4-(5-methyl-3-(trifluoromethyl)-1H-pyrazol-1-yl)pyrimidin-5-yl)nicotinic acid]: the inhibition at 13 µM worked out at 100%.

For the molecule `CC(C)Oc1ncc(-c2cnc(Nc3ccc(F)c(Cl)c3)nc2-n2ccc(C(F)(F)F)n2)cc1C(=O)O` [Example 959, 5-(2-(3-chloro-4-fluorophenylamino)-4-(3-(trifluoromethyl)-1H-pyrazol-1-yl)pyrimidin-5-yl)-2-isopropoxynicotinic acid], the inhibition at 13 µM was determined as 93%. Take `Cc1cc(C(F)(F)F)nn1-c1nc(Nc2ccc(F)c(Cl)c2)ncc1-c1cnc(OC(C)C)c(C(=O)O)c1` [Example 960, 5-(2-(3-chloro-4-fluorophenylamino)-4-(5-methyl-3-(trifluoromethyl)-1H-pyrazol-1-yl)pyrimidin-5-yl)-2-isopropoxynicotinic acid]: the inhibition at 13 µM is 100%. Turning to `Cn1ccnc1COc1ncc(-c2cnc(Nc3ccc(F)c(Cl)c3)nc2-n2ccc(C(F)(F)F)n2)cc1C(=O)O` [Example 961, 5-(2-(3-chloro-4-fluorophenylamino)-4-(3-(trifluoromethyl)-1H-pyrazol-1-yl)pyrimidin-5-yl)-2-((1-methyl-1H-imidazol-2-yl)methoxy)nicotinic acid], the inhibition at 13 µM is 100%. Regarding `CN1CCN(CCOc2ncc(-c3cnc(Nc4ccc(F)c(Cl)c4)nc3-n3ccc(C(F)(F)F)n3)cc2C(=O)O)CC1` [Example 962, 5-(2-(3-chloro-4-fluorophenylamino)-4-(3-(trifluoromethyl)-1H-pyrazol-1-yl)pyrimidin-5-yl)-2-(2-(4-methylpiperazin-1-yl)ethoxy)nicotinic acid], the inhibition at 13 µM was 98%. Same read-out and setting: to `Cc1cc(C(F)(F)F)nn1-c1nc(Nc2ccc(F)c(Cl)c2)ncc1-c1cnc(OCCN2CCN(C)CC2)c(C(=O)O)c1` [Example 963, 5-(2-(3-chloro-4-fluorophenylamino)-4-(5-methyl-3-(trifluoromethyl)-1H-pyrazol-1-yl)pyrimidin-5-yl)-2-(2-(4-methylpiperazin-1-yl)ethoxy)nicotinic acid] belongs 100%; to `Cc1cc(C)cc(Nc2ncc(-c3cnc(OCCS(C)(=O)=O)c(C(=O)O)c3)c(-n3ccc(C(F)(F)F)n3)n2)c1` [Example 964], 40%; to `COc1cc(Nc2ncc(-c3cnc(OCCS(C)(=O)=O)c(C(=O)O)c3)c(-n3nc(C(F)(F)F)cc3C)n2)cc(OC)c1` [Example 965, 5-(2-(3,5-dimethoxyphenylamino)-4-(5-methyl-3-(trifluoromethyl)-1H-pyrazol-1-yl)pyrimidin-5-yl)-2-(2-(methylsulfonyl)ethoxy)nicotinic acid], 100%. Regarding `CS(=O)(=O)CCOc1ncc(-c2cnc(Nc3ccc(F)c(Cl)c3)nc2-n2ccc(C(F)(F)F)n2)cc1C(=O)O` [Example 966, 5-(2-(3-chloro-4-fluorophenylamino)-4-(3-(trifluoromethyl)-1H-pyrazol-1-yl)pyrimidin-5-yl)-2-(2-(methylsulfonyl)ethoxy)nicotinic acid], the inhibition at 13 µM worked out at 100%.
